Experimental data reported in BindingDB's records for doi:10.1111/cbdd.12732 (Yogi Vemana University, 2016).

Each compound was assayed against Acetylcholinesterase (Electrophorus electricus, UniProt O42275) (assay: AChE Inhibitory Assay). Details: pH 7.7.
Acetylcholinesterase, sequence (O42275 whole entry): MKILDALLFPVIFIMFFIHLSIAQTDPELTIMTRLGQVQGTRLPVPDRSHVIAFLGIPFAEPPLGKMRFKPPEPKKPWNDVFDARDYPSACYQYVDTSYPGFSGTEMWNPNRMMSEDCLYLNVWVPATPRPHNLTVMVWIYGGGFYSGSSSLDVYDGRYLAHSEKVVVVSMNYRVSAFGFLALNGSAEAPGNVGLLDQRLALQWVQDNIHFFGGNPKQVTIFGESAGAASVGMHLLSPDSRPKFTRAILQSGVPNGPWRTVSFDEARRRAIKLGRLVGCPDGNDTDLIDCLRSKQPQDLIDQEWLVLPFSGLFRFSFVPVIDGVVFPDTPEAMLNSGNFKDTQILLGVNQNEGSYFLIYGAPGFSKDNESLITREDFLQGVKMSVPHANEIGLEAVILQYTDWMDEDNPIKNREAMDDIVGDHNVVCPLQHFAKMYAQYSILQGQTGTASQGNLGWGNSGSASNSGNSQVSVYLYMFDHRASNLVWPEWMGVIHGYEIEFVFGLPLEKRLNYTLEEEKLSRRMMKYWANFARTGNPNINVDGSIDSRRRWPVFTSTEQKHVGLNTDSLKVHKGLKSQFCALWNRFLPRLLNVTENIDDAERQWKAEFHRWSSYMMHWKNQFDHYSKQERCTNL
Experimental: The mixture was incubated at 25 °C for 5 min. Subsequently, the enzymatic reaction was initiated by addition of 15 µL of 1 mM of acetylthiocholine iodide or butyrylthiocholine iodide (according to the respective enzyme), and the mixture was again incubated for 5 min at 25 °C. The rate of absorbance change was measured at 412 nm for 6 min using a microplate reader (Bio-Rad 680, Germany). Galantamine was applied as positive drug.
With `COc1ccc(C(C)NC(=O)c2cc3c(ccc4ccc(=O)oc43)oc2=N)cc1` (configuration not stated) [8-imino-N-(1-(4-methoxyphenyl)ethyl)-2-oxo-2H,8Hpyrano[2,3-f]chromene-9-carboxamide (4j)] the IC50 was 390 nM. `Cc1cc(=O)oc2c1ccc1oc(=N)c(C(=O)NCc3ccc(C(C)(C)C)cc3)cc12` [N-(4-(tert-butyl)benzyl)-8-imino-4-methyl-2-oxo-2H,8H-pyrano[2,3-f]chromene-9-carboxamide (4p)] gave an IC50 of 77 nM. `N=c1oc2ccc3ccc(=O)oc3c2cc1C(=O)NC1CC1` [N-cyclopropyl-8-imino-2-oxo-2H,8H-pyrano[2,3-f]chromene-9-carboxamide (4d)] gave an IC50 of 799 nM. `N=c1oc2ccc3ccc(=O)oc3c2cc1C(=O)N1CCOCC1` [8-imino-9-(morpholine-4-carbonyl)-2H,8H-pyrano[2,3-f]chromen-2-one (4f)] was tested, and the IC50 was 226 nM. With `N=c1oc2ccc3ccc(=O)oc3c2cc1C(=O)NC(c1ccccc1)c1ccccc1` [N-benzhydryl-8-imino-2-oxo-2H,8H-pyrano[2,3-f]chromene-9-carboxamide (4i)] the IC50 was 669 nM. Compound `CCNC(=O)c1cc2c(ccc3ccc(=O)oc32)oc1=N` [N-ethyl-8-imino-2-oxo-2H,8H-pyrano[2,3-f]chromene-9-carboxamide (4b)] has an IC50 of 259 nM. `CNC(=O)c1cc2c(ccc3ccc(=O)oc32)oc1=N` [8-imino-N-methyl-2-oxo-2H,8H-pyrano[2,3-f]chromene-9-carboxamide (4a)] gave an IC50 of 415 nM. In the case of `N=c1oc2ccc3ccc(=O)oc3c2cc1C(=O)NCc1ccccc1Br` [N-(2-bromobenzyl)-8-imino-2-oxo-2H,8H-pyrano[2,3-f]chromene-9-carboxamide (4l)], the IC50 is reported as 27 nM. In the case of `N=c1oc2ccc3ccc(=O)oc3c2cc1C(=O)NCc1cccc(Br)c1` [N-(3-bromobenzyl)-8-imino-2-oxo-2H,8H-pyrano[2,3-f]chromene-9-carboxamide (4m)], the IC50 is reported as 13 nM. Compound `COc1ccc(CNC(=O)c2cc3c(ccc4ccc(=O)oc43)oc2=N)c(OC)c1` [N-(2,4-dimethoxybenzyl)-8-imino-2-oxo-2H,8H-pyrano[2,3-f]chromene-9-carboxamide (4k)] has an IC50 of 300 nM. `N=c1oc2ccc3ccc(=O)oc3c2cc1C(=O)NCc1ccccc1` [N-benzyl-8-imino-2-oxo-2H,8H-pyrano[2,3-f]chromene-9-carboxamide (4g)] gave an IC50 of 497 nM. Work on `CCCCCCCCCCCCNC(=O)c1cc2c(ccc3ccc(=O)oc32)oc1=N` [N-dodecyl-8-imino-2-oxo-2H,8H-pyrano[2,3-f]chromene-9-carboxamide (4c)] yielded an IC50 of 83 nM. `N=c1oc2ccc3ccc(=O)oc3c2cc1C(=O)NC1CCCCC1` [N-cyclohexyl-8-imino-2-oxo-2H,8H-pyrano[2,3-f]chromene-9-carboxamide (4e)] gave an IC50 of 169 nM. Work on `N=c1oc2ccc3ccc(=O)oc3c2cc1C(=O)NCc1cccc(Cl)c1` [N-(3-chlorobenzyl)-8-imino-2-oxo-2H,8H-pyrano[2,3-f]chromene-9-carboxamide (4o)] yielded an IC50 of 88 nM. For `COc1ccccc1OCCNC(=O)c1cc2c(ccc3ccc(=O)oc32)oc1=N` [8-imino-N-(2-(2-methoxyphenoxy)ethyl)-2-oxo-2H,8H-pyrano[2,3-f]chromene-9-carboxamide (4q)], the IC50 was 440 nM. Compound `CC(NC(=O)c1cc2c(ccc3ccc(=O)oc32)oc1=N)c1ccccc1` (configuration not stated) [8-imino-2-oxo-N-(1-phenylethyl)-2H,8H-pyrano[2,3-f]chromene-9-carboxamide (4h)] has an IC50 of 462 nM. `N=c1oc2ccc3ccc(=O)oc3c2cc1C(=O)NCc1ccccc1Cl` [N-(2-chlorobenzyl)-8-imino-2-oxo-2H,8H-pyrano[2,3-f]chromene-9-carboxamide (4n)] showed an IC50 of 30 nM.
